# Read-outs that look alike come from different tables or passages of the source.
# Legend:
# [1] = tested on: senescent cells (human fibroblasts); assay: Cell cycle analysis by flow cytometry (S phase entry), senescent cells; type: cell-based; settings: 30 μM LPA, 300 μM ACI, 1, 2, 4 days
# Method: (§1) At this time, cell numbers regarded as significant compared with that of the control were presented in (A) and (B) (p<0.001). Cell cycle in (C) was analysed by flow cytometry. The percentage of cells entered S phase was averaged of three repeated measurements (p<0.001). Young and senescent cells were treated with 30 μM of LPA, 300 μM of ACI, LPA+ACI, 10 mM of AMPKI or 10 mM of AICAR, followed by culture for 1, 2, and 4 days. To analyze cell cycle, the cells were washed with buffer twice and then the cells were centrifuged using 0.25% trypsin, followed by fixation in cold 70% ethanol. Analysis was performed by flow cytometry (Becton Dickinson FACSorter) using […] of PI containing RNase. Cell proliferation and cAMP level were increased by LPA in senescent cells (Yeo et al., 2002). The AC inhibitor (ACI) was added to reduce cAMP which had been increased by LPA. And then, cell proliferation was investigated. Cells were cultured in serum-free medium for 2 days to arrest them in G0/G1 phase. Then, the cells were treated with LPA, ACI or LPA+ACI. Total cell number was measured on day 1, day 2 and day 4, or the cells entered into S phase were counted to evaluate cell proliferation. When young cells were treated with 300 μM of ACI, cell proliferation was reduced, compared with control (FIG. 1A). […]
# PKA = PKA activity in cells; type: cell-based, human
# [2] = tested on: young cells (human fibroblasts); assay: Cell cycle analysis by flow cytometry (S phase entry), young cells; type: cell-based; settings: 30 μM LPA
# Method: as §1
# cAMP = settings: cited from earlier work
Compound,cell number entered into S phase [1],PKA activity (PKA; senescent cells),PKA activity (PKA; young cells),S phase entry [2],"cAMP level (cAMP; senescent cells (Yeo et al., 2002))","cAMP level (cAMP; young cells (Jang et al., 2006b))"
"Nc1ncnc2c1ncn2C1CCCO1 (stereo not drawn) [ACI, 9-(tetrahydro-2′-furyl)adenine]",increased,completely inhibited,completely inhibited,,,
lysophosphatidic acid [LPA],,,,promotion of S phase entry,increased,down-regulated

# — patent publication US20110124607A1, “COMPOSITION FOR REGULATION CELLULAR SENESCENCE COMPRISING LYSOPHOSPHATIDIC ACID AND INHIBITOR OF ADENYLYL CYCLASE AS ACTIVE INGREDIENTS” (priority 2008, published 2011)
